Series [1] relates to Rattus norvegicus. The experiment in a line: Antiinflammatory activity against carrageenan-induced foot paw edema in rat assessed as reduction in paw size at 20 mg/kg, sc administered 30 mins before carrageenan challenge measured after 3 hrs relative to control. It counts as functional. The arrangement: scale not given: the % may be the effect or the level left. The following applies: route subcutaneous. (In the carrageenan paw model, swelling and tenderness develop within hours.)

For series [2], the system named is Mus musculus. The experiment in a line: Analgesic activity in mouse assessed as protection against acetic acid-induced writhing at 5 mg/kg, sc administered 30 mins before acetic acid challenge measured after 3 hrs relative to control. It counts as functional. The note with it: route subcutaneous. A general note: In writhing tests, fewer writhes than in controls are read as antinociception.

Series [3] concerns Mus musculus. The experiment in a line: Analgesic activity in mouse assessed as protection against acetic acid-induced writhing at 5 mg/kg, sc administered 30 mins before acetic acid challenge measured after 2 hrs relative to control. It counts as functional. The note with it: route subcutaneous.
The subject of series [4] is Mus musculus. The experiment in a line: Analgesic activity in mouse assessed as protection against acetic acid-induced writhing at 5 mg/kg, sc administered 30 mins before acetic acid challenge measured after 1 hr relative to control. It counts as functional. The following applies: route subcutaneous.
Series [5] deals with Mus musculus. The experiment in a line: Analgesic activity in mouse assessed as protection against acetic acid-induced writhing at 5 mg/kg, sc administered 30 mins before acetic acid challenge measured after 4 hrs relative to control. It counts as functional. The note with it: route subcutaneous.
Series [6] concerns Rattus norvegicus. The experiment in a line: Antipyretic activity against yeast-induced hyperpyrexia in hyperthermic rat assessed as rectal temperature at 100 mg/kg, sc administered 18 hrs after yeast challenge measured after 3 hrs (Rvb=39.20 +/- 0.24 degC). It counts as functional. The following applies: route subcutaneous.
In series [7] the test system is Rattus norvegicus. The experiment in a line: Antipyretic activity against yeast-induced hyperpyrexia in hyperthermic rat assessed as rectal temperature at 100 mg/kg, sc administered 18 hrs after yeast challenge measured after 4 hrs (Rvb=39.17 +/- 0.20 degC). It counts as functional. The note with it: route subcutaneous.
For series [8], the system named is Rattus norvegicus. The experiment in a line: Antipyretic activity against yeast-induced hyperpyrexia in hyperthermic rat assessed as rectal temperature at 100 mg/kg, sc administered 18 hrs after yeast challenge measured after 2 hrs (Rvb=39.11 +/- 0.26 degC). It counts as functional. The following applies: route subcutaneous.
Series [9] has as its system Rattus norvegicus. The experiment in a line: Antipyretic activity against yeast-induced hyperpyrexia in hyperthermic rat assessed as rectal temperature at 100 mg/kg, sc administered 18 hrs after yeast challenge measured after 1 hr (Rvb=39.24 +/- 0.22 degC). It counts as functional. The following applies: route subcutaneous.
Series [10] relates to Mus musculus. The experiment in a line: Analgesic activity in mouse assessed as protection against acetic acid-induced writhing at one-tenth of LD50 administered subcutaneously 30 mins before acetic acid challenge measured after 3 hrs relative to control. It counts as functional.
The subject of series [11] is Rattus norvegicus. The experiment in a line: Antipyretic activity against yeast-induced hyperpyrexia in hyperthermic rat assessed as rectal temperature at one-tenth of LD50 administered subcutaneously 18 hrs after yeast challenge measured after 3 hrs (Rvb=39.20 +/- 0.24 degC). It counts as functional.
The nature of series [12]: Toxicity in sc dosed albino mouse up to 24 hrs. It counts as organism-based. The following applies: in vivo.
Series [13] concerns Mus musculus. The experiment in a line: Analgesic activity in mouse assessed as protection against acetic acid-induced writhing at one-tenth of LD50 administered subcutaneously 30 mins before acetic acid challenge measured after 1 hr relative to control. It counts as functional.
Series [14] concerns Rattus norvegicus. The experiment in a line: Antiinflammatory activity against carrageenan-induced foot paw edema in rat assessed as reduction in paw size at one-tenth of LD50 administered subcutaneously 30 mins before carrageenan challenge measured after 3 hrs relative to control. On the set-up: scale not given: the % may be the effect or the level left. It counts as functional.

Series [15] deals with Mus musculus. The experiment in a line: Analgesic activity in mouse assessed as protection against acetic acid-induced writhing at one-tenth of LD50 administered subcutaneously 30 mins before acetic acid challenge measured after 4 hrs relative to control. It counts as functional.
The subject of series [16] is Rattus norvegicus. The experiment in a line: Antipyretic activity against yeast-induced hyperpyrexia in hyperthermic rat assessed as rectal temperature at one-tenth of LD50 administered subcutaneously 18 hrs after yeast challenge measured after 2 hrs (Rvb=39.11 +/- 0.26 degC). It counts as functional.
For series [17], the system named is Mus musculus. The experiment in a line: Analgesic activity in mouse assessed as protection against acetic acid-induced writhing at one-tenth of LD50 administered subcutaneously 30 mins before acetic acid challenge measured after 2 hrs relative to control. It counts as functional.
The subject of series [18] is Rattus norvegicus. The experiment in a line: Antipyretic activity against yeast-induced hyperpyrexia in hyperthermic rat assessed as rectal temperature at one-tenth of LD50 administered subcutaneously 18 hrs after yeast challenge measured after 1 hr (Rvb=39.24 +/- 0.22 degC). It counts as functional.
For series [19], the system named is Rattus norvegicus. The experiment in a line: Antipyretic activity against yeast-induced hyperpyrexia in hyperthermic rat assessed as rectal temperature at one-tenth of LD50 administered subcutaneously 18 hrs after yeast challenge measured after 4 hrs (Rvb=39.17 +/- 0.20 degC). It counts as functional.

Turning to `Cc1ccc(-c2cc(C(F)(F)F)nn2-c2ccc(S(N)(=O)=O)cc2)cc1` [CELECOXIB], in the series with Rattus norvegicus [1], the Activity is on record as 39.67%.
On to `O=C([O-])Cc1ccccc1Nc1c(Cl)cccc1Cl.[Na+]` [DICLOFENAC SODIUM], for which the Activity is given as 68.44% in the series with Mus musculus [2], 75.24% with Mus musculus [3], 74.02% in the series with Mus musculus [4] and 55.82% in the series with Mus musculus [5].
`CC(=O)Nc1ccc(O)cc1` [ACETAMINOPHEN]: the Activity with Rattus norvegicus [6] is 37.27 °C; in the series on Rattus norvegicus [7], 37.16 °C; with Rattus norvegicus [8], 37.2 °C; in the series with Rattus norvegicus [9], 37.38 °C.
A word on the LD50: it is the dose expected to kill half of the subjects tested. As to `CN(C)c1ccc(C2CC(c3c(O)ccc4c(-c5ccccc5)cc(=O)oc34)=NN2c2ccc([N+](=O)[O-])cc2[N+](=O)[O-])cc1` (centres undefined), the Activity in the series on Mus musculus [10] is 19.05%; with Rattus norvegicus [11] it was 38.42 °C; in the series with Mus musculus [13], 36.94%; in the series on Rattus norvegicus [14] it was 17.06%; with Mus musculus [15], 7.29%; with Rattus norvegicus [16], 38.1 °C. Also, the Activity came to 35.29% in the series with Mus musculus [17], 38.54 °C in the series with Rattus norvegicus [18] and 38.91 °C in the series with Rattus norvegicus [19]. Also, the LD50 at 24 h in [12] amounted to 330 mg/kg.
With `CC(=O)c1c(O)ccc2c(-c3ccccc3)cc(=O)oc12`, the Activity in the series on Mus musculus [10] came out at 4.92%; in the series with Rattus norvegicus [11], 39 °C; with Mus musculus [13], 0%; with Rattus norvegicus [14], 20.27%; with Mus musculus [15], 2.81%; with Rattus norvegicus [16], 38.91 °C. The Activity in the series with Mus musculus [17] worked out at 2.34%; in the series with Rattus norvegicus [18], 38.91 °C; with Rattus norvegicus [19], 39.06 °C. In series [12], the LD50 at 24 h worked out at 290 mg/kg.
On to `COc1ccc(C2CC(c3c(O)ccc4c(-c5ccccc5)cc(=O)oc34)=NN2c2ccccc2)cc1` (centres undefined), for which the Activity in the series on Mus musculus [10] worked out at 18.24%; with Rattus norvegicus [11] it was 38.44 °C; in the series with Mus musculus [13] it was 41.23%; with Rattus norvegicus [14] it was 18.85%; in the series with Mus musculus [15], 6.63%; with Rattus norvegicus [16], 38.14 °C. Moreover, the figures for the Activity with Mus musculus [17], with Rattus norvegicus [18] and with Rattus norvegicus [19] were 39.09%, 38.51 °C and 38.87 °C, respectively. In series [12], the LD50 at 24 h was found to be 370 mg/kg.
Consider `N#Cc1c(-c2ccc(Cl)cc2)cc(-c2c(O)ccc3c(-c4ccccc4)cc(=O)oc23)[nH]c1=N`, for which the Activity was 5.39% with Mus musculus [10]; 38.84 °C in the series with Rattus norvegicus [11]; 3.28% in the series with Mus musculus [13]; 4.7% in the series on Rattus norvegicus [14]; 3.52% in the series with Mus musculus [15]; 39 °C in the series on Rattus norvegicus [16]. The Activity was found to be 2.58% in the series with Mus musculus [17], 38.91 °C in the series on Rattus norvegicus [18] and 38.91 °C in the series with Rattus norvegicus [19]. In series [12], this molecule returned an LD50 at 24 h of 390 mg/kg.
Take `COc1ccc(-c2cc(-c3c(O)ccc4c(-c5ccccc5)cc(=O)oc34)[nH]c(=N)c2C#N)cc1`: the Activity worked out at 1.17% in the series with Mus musculus [10]; 38.81 °C in the series with Rattus norvegicus [11]; 4.7% in the series on Mus musculus [13]; 15.94% in the series with Rattus norvegicus [14]; 1.88% in the series on Mus musculus [15]; 38.81 °C in the series on Rattus norvegicus [16]. Moreover, the Activity is 0.7% with Mus musculus [17], 38.9 °C in the series on Rattus norvegicus [18] and 38.91 °C with Rattus norvegicus [19]. Further, the LD50 at 24 h in series [12] worked out at 330 mg/kg.
As to `O=C(/C=C/c1ccc(Cl)cc1)c1c(O)ccc2c(-c3ccccc3)cc(=O)oc12`, the Activity was 1.65% with Mus musculus [10]; 38.84 °C in the series on Rattus norvegicus [11]; 0% in the series with Mus musculus [13]; 20.27% in the series with Rattus norvegicus [14]; 0.94% with Mus musculus [15]; 38.91 °C in the series on Rattus norvegicus [16]. The Activity was determined as 0.94% with Mus musculus [17], 39.05 °C in the series with Rattus norvegicus [18] and 38.91 °C in the series on Rattus norvegicus [19]. This molecule also had an LD50 at 24 h in [12] of 330 mg/kg.
With `CN(C)c1ccc(-c2cc(-c3c(O)ccc4c(-c5ccccc5)cc(=O)oc34)[nH]c(=O)c2C#N)cc1`, the Activity came to 7.54% in the series on Mus musculus [10]; 38.9 °C with Rattus norvegicus [11]; 9.66% with Mus musculus [13]; 7.24% with Rattus norvegicus [14]; 2.35% with Mus musculus [15]; 38.91 °C in the series with Rattus norvegicus [16]. Moreover, the Activity in the series with Mus musculus [17] is 7.54%; in the series on Rattus norvegicus [18], 38.91 °C; in the series with Rattus norvegicus [19], 39.11 °C. In addition, the LD50 at 24 h in series [12] was 390 mg/kg.
With `O=c1cc(-c2ccccc2)c2ccc(O)c(C3=NN(c4ccc([N+](=O)[O-])cc4[N+](=O)[O-])C(c4ccc(Cl)cc4)C3)c2o1` (centres undefined), the Activity came to 0.93% in the series with Mus musculus [10]; 38.91 °C in the series with Rattus norvegicus [11]; 0.93% with Mus musculus [13]; 11.27% in the series on Rattus norvegicus [14]; 1.4% in the series on Mus musculus [15]; 38.91 °C in the series with Rattus norvegicus [16]. Moreover, the Activity in the series on Mus musculus [17] was 1.4%; in the series on Rattus norvegicus [18], 38.81 °C; in the series with Rattus norvegicus [19] it was 38.94 °C. Also, the LD50 at 24 h in series [12] was determined as 390 mg/kg.
Turning to `C/C(=N\Nc1ccc([N+](=O)[O-])cc1[N+](=O)[O-])c1c(O)ccc2c(-c3ccccc3)cc(=O)oc12`, the Activity was 13.41% in the series with Mus musculus [10]; 38.34 °C in the series on Rattus norvegicus [11]; 16.7% with Mus musculus [13]; 0.67% with Rattus norvegicus [14]; 4.47% with Mus musculus [15]; 38.05 °C with Rattus norvegicus [16]. For the same molecule, the Activity is 18.35% in the series with Mus musculus [17], 38.42 °C in the series with Rattus norvegicus [18] and 38.93 °C with Rattus norvegicus [19]. In addition, the LD50 at 24 h in series [12] was found to be 370 mg/kg.
Consider `CN(C)c1ccc(C2CC(c3c(O)ccc4c(-c5ccccc5)cc(=O)oc34)=NN2)cc1` (centres undefined), for which the Activity with Mus musculus [10] amounted to 2.35%; in the series on Rattus norvegicus [11] it was 38.91 °C; in the series on Mus musculus [13], 1.41%; in the series on Rattus norvegicus [14], 8.7%; with Mus musculus [15], 2.11%; in the series with Rattus norvegicus [16] it was 38.9 °C. Also, the results for the Activity with Mus musculus [17], with Rattus norvegicus [18] and in the series with Rattus norvegicus [19] were 1.64%, 38.91 °C and 38.91 °C, respectively. Besides, the LD50 at 24 h in series [12] came out at 310 mg/kg.

(Values after ChEMBL document CHEMBL1154088, “Synthesis, biological evaluation and docking studies of novel benzopyranone congeners for their expected activity as anti-inflammatory, analgesic and antipyretic agents” (Bioorg Med Chem, 2009).)
